Key:
CFTR channel = target: T1, CFTR channel (Homo sapiens, UniProt P13569); assay: Transepithelial electrical resistance (TEER) assay on 16HBE14o− bronchial epithelial cells; format: cell-based; conditions: 16HBE14o− cells, 10, 30 and 60 minutes; CHF6001 30 nM, Roflumilast 50 nM
T1 construct: the TEER assay was performed with these agents on 16HBE14o− bronchial epithelial cells (BEC); endogenous in cells; host or cells: 16HBE14o− human bronchial epithelial cell line (provided by P. Davis)

ΔF508 CFTR = target: T2, ΔF508 CFTR (Homo sapiens, UniProt P13569, DEL508-508); assay: HS-YFP assay, CFTR corrector activity in CFBE41o− cells; format: cell-based; conditions: 24 h exposure, VRT809 5 μM
T2 construct: cells expressing endogenous ΔF508-CFTR; endogenous in cells; host or cells: CFBE41o− human CF bronchial epithelial cell line (gift from D. C. Gruenert), homozygous ΔF508
T2 sequence (P13569 with tags, fused parts or gaps DEL508-508): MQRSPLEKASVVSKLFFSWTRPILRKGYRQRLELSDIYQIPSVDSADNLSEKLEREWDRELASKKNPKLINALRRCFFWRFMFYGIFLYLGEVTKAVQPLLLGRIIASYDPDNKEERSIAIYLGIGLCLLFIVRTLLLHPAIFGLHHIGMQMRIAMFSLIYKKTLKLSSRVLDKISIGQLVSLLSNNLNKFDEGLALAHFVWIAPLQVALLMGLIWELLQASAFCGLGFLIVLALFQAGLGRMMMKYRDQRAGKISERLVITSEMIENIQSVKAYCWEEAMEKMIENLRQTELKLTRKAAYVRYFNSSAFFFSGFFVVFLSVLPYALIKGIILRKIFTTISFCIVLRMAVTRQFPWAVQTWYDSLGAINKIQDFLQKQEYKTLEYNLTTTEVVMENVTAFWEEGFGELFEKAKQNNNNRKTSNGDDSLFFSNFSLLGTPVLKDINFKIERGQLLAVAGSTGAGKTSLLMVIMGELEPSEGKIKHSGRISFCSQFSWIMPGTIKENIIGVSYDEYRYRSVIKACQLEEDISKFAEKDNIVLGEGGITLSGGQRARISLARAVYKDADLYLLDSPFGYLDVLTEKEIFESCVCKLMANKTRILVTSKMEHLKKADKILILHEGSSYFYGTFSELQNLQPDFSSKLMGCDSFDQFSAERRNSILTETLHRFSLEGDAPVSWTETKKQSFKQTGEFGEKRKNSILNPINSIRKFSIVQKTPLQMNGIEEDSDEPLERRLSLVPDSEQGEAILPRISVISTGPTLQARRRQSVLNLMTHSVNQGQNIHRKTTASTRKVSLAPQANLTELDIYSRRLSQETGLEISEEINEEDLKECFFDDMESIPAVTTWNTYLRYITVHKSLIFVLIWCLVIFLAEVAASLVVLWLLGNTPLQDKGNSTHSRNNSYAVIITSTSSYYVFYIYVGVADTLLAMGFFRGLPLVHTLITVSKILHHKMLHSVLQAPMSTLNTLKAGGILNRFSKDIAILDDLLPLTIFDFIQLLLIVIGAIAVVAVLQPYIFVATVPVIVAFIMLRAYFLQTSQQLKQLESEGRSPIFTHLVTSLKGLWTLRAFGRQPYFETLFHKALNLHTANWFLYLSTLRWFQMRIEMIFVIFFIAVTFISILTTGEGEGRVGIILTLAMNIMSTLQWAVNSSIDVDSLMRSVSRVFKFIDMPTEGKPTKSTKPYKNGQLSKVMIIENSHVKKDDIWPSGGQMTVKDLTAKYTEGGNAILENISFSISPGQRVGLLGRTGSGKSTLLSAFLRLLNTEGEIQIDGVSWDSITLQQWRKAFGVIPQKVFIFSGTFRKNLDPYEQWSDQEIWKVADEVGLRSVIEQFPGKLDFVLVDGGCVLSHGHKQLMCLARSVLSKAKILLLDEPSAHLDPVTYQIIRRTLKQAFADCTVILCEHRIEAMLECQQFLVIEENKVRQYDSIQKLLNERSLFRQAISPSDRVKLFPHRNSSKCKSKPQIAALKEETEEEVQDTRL
Excerpt: The CF human bronchial epithelial cell line (CFBE41o−), homozygous for the ΔF508 mutation of the CFTR protein (Ehrhard et al., 2006, Cell Tissue Res. Vol. 323, p. 405-415; kind gift from D. C. Gruenert, California Pacific Medical Center Research Institute, San Francisco, Calif., USA) and the human bronchial epithelial cell line 16HBE14o−, wildtype (wt) for the CFTR protein (kindly provided by P. Davis, Case Western Reserve University School of Medicine, Cleveland, Ohio, USA) were maintained in EMEM (Lonza) supplemented with 10% FBS and 1% Glutamax (Sigma). […]
The CFTR activity in epithelial cells was evaluated by Yellow Fluorescence Protein (YFP) with a protocol modified from the method published by Averna et al. (PLoS One, 2013, vol. 8, e66089). […]
The potential corrector activity of roflumilast and a compound of general formula (I) (CHF6001) was evaluated in comparison with the known CFTR corrector VRT809 in the human bronchial epithelial cell line CFBE41o− (homozygous for the ΔF508 mutation of the CFTR protein) by the HS-YFP assay (FIG. 3). […]
FIG. 3. CFTR corrector activity was evaluated in CFBE41o− epithelial cell line after 24 h exposure to CFTR corrector VRT809 (5 μM), CHF6001, and Roflumilast at the indicated doses.
Values are normalized for total cell content and expressed as means±SEM (n=4) *p≤0.05 t-test (vs DMSO)

CFTR [1] = target: T3, CFTR (Homo sapiens, UniProt P13569, DEL508-508); assay: Western Blot, total presence of CFTR protein in CFBE41o− cells; format: cell-based; conditions: 24 h exposure, VRT809 5 μM
T3 construct: cells expressing endogenous ΔF508-CFTR; endogenous in cells; host or cells: CFBE41o− human CF bronchial epithelial cell line (gift from D. C. Gruenert), homozygous ΔF508
T3 sequence (P13569 with tags, fused parts or gaps DEL508-508): as above
Method: CFBE41o− and 16HBE14o− cells, respectively, were lysed in lysis buffer (50 mmol/L Tris, 150 mmol/L NaCl, 1 mmol/L EDTA, 1% Triton X-100 pH 7.4) containing protease inhibitors (Roche, Inc.). A total of 10 μg (16HBE14o−/CFBE41o−) total protein per lane was separated using 7.5% (v/v) polyacrylamide electrophoresis (PAGE) SDS gels and transferred onto nitro-cellulose membranes, that were probed with a monoclonal anti-CFTR antibody (Cell Signaling 2269; according to information provided by Cell Signaling produced by immunizing rabbits with a synthetic peptide corresponding to amino acid residues near the amino terminus of human CFTR) at a 1:500 dilution, overnight at 4° C. Membranes were re-probed with a monoclonal anti-actin (Sigma-Aldrich) to normalize for protein loading. The relative levels of CFTR were estimated by densitometry using the ImageJ program (http://rsb.info.nih.gov/ij/). The amount of band C (understood to be the fully glycosylated mature form of CFTR)) is calculated as a fraction of actin for the respective lane and reported as a fraction of the total (band C/actin). […] The values reported are expressed as means+/−SD (n=3). Data sets were compared by a t-test using GraphPad Prism. […]
FIG. 5. Presence of CFTR was evaluated by western blotting in human bronchial epithelial cell lines 16HBE14o− (non CF) and CFBE41o− (ΔF508/ΔF508) after 24 h exposure to CFTR corrector VRT809 (5 μM) in comparison with the two compounds CHF6001 and Roflumilast.
Top: average of several experiments; the relative levels of CFTR were estimated by densitometry using the ImageJ program (http://rsb.info.nih.gov/ij/). The native amount of band C is calculated as a fraction of actin for the respective lane and reported as a fraction of the total (band C/actin). The values reported are expressed as means+/−SEM (n=3). […]

CFTR [2] = assay: Immunofluorescence staining of CFTR in CFBE41o− cells; format: cell-based, human; conditions: CFBE41o− cells treated for 24 h, different concentrations
Method: CFBE41o− and 16HBE14o− cells, respectively, were seeded on a glass slide and, after exposure to agent or vehicle, were washed twice with PBS 1× and fixed with paraformaldehyde 4% (PFA) for 30 min and stored in PBS 1× at 4° C. until immunostaining. The fixed cells were washed twice with PBS 1×, and treated for 3 minutes with […] NH4Cl at room temperature in order to quench the aldehyde group. After another washing step, the cells were permeabilized with TRITON X100 0.1% for 5 minutes and were blocked with a solution of 1% BSA for 30 minutes. The anti-CFTR antibody M3A7, raised against an epitope corresponding to residues 1197-1480 of human CFTR (Santa Cruz) was added at 1:100 dilution for 1 hour, then the cells were stained with secondary antibody anti IgG1 488 (1:1000, Santa Cruz) and Rhodamine Phalloidine (1:500) for another hour. Finally, the cells were subjected to DAPI (Sigma Aldrich) staining (1:2000) for 1 hour at RT, then the slides were analyzed by Leica DM6000M microscope with a 40× objective. Images were processed for brightness and contrast with Adobe Photoshop.
FIG. 6: Immunofluorescence staining performed on CFBE41o− cells treated for 24 h with VX809+VX770, CHF6001 and Roflumilast at different concentrations or vehicle (DMSO).

T1 sequence (P13569 whole entry): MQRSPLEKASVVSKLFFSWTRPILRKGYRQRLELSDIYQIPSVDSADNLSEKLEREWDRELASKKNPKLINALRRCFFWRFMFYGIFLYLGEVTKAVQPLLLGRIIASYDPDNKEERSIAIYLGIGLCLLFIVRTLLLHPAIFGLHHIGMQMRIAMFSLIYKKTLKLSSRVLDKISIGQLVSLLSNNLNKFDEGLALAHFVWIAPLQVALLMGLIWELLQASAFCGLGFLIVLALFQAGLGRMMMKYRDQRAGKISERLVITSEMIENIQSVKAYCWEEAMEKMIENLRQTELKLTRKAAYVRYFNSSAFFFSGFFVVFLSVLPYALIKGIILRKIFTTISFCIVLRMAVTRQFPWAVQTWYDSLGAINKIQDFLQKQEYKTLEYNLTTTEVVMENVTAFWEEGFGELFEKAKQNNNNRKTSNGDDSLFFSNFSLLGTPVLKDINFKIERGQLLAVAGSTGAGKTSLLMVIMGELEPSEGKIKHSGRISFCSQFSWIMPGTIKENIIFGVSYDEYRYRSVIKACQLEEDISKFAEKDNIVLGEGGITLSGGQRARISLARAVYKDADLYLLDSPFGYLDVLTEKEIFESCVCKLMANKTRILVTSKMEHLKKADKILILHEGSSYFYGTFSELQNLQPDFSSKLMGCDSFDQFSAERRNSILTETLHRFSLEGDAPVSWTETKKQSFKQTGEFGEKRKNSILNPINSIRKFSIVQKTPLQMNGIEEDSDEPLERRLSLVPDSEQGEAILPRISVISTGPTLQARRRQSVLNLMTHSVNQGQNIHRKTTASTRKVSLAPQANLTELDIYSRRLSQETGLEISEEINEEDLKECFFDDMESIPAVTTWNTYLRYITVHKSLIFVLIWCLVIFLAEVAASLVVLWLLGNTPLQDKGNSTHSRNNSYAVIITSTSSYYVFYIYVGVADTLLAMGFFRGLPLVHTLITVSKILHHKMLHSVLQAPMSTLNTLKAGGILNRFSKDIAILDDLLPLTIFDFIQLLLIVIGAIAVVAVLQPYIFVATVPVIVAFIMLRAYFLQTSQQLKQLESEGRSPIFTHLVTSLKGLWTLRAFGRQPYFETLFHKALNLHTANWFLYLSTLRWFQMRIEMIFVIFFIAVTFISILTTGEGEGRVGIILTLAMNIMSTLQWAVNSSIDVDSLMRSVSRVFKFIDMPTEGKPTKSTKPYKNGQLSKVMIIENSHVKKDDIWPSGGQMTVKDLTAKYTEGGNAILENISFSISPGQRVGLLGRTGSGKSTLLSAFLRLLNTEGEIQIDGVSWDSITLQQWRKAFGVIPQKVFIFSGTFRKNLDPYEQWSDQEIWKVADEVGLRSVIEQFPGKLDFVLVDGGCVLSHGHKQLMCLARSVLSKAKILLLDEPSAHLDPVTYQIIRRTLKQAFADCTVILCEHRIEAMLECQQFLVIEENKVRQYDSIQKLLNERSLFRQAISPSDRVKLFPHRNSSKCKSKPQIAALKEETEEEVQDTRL

Compound	trans-epithelial electric resistance normalized to DMSO (set to 100%) (CFTR channel)	CFTR activity (corrector activity) compared with VRT809 (ΔF508 CFTR)	total presence of CFTR protein (band C/actin) (CFTR [1])	presence of CFTR by immunofluorescence (CFTR [2])
CS(=O)(=O)Nc1ccc(C(=O)OC(Cc2c(Cl)c[n+]([O-])cc2Cl)c2ccc(OC(F)F)c(OCC3CC3)c2)cc1OCC1CC1 (centres unmarked) [CHF6001, 3-Cyclopropylmethoxy-4-methanesulfonylamino-benzoic acid 1-(3-cyclopropylmethoxy-4-difluoromethoxy-phenyl)-2-(3,5-dichloro-1-oxy-pyridin-4-yl)-ethyl ester]	decrease the electric resistance	equal or superior to VRT809	up-regulation of CFTR protein	increase the presence of CFTR
O=C(Nc1c(Cl)cncc1Cl)c1ccc(OC(F)F)c(OCC2CC2)c1 [Roflumilast, 3-cyclo-propylmethoxy-4-difluoromethoxy-N-[3,5-di-chloropyrid-4-yl]-benzamide]	decrease the electric resistance	equal or superior to VRT809	up-regulation of CFTR protein	increase the presence of CFTR

Source: patent US20220218678A1, “USE OF 1-PHENYL-2-PYRIDINYL ALKYL ALCOHOL DERIVATIVES FOR TREATING CYSTIC FIBROSIS” (CHIESI FARMACEUTICI S.p.A., priority 2017, published 2022)
